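Five compound concentrations were applied to cells in 96-well plates for 48 hours; endpoints were derived by simple linear interpolation of the resulting dose-response curve. The concentration for full growth arrest is given as TGI.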
Tests used:
Assay in all cases: NCI tumour cell line growth inhibition, 48 h
[1] = system: A549 NSCLC
[2] = system: ACHN renal
[3] = system: CCRF-CEM leukemia
[4] = system: EKVX NSCLC
[5] = system: HCT-116 colon
[6] = system: HL-60(TB) leukemia
[7] = system: HT29 colon
[8] = system: IGROV1 ovarian
[9] = system: LOX IMVI melanoma
[10] = system: MDA-N
[11] = system: OVCAR-8 ovarian
[12] = system: PC-3 prostate
[13] = system: RXF 393 renal
[14] = system: SK-MEL-5 melanoma
[15] = system: SN12C renal
[16] = system: T-47D breast
[17] = system: TK-10 renal
[18] = system: NCI-H226 lung
[19] = system: U251 CNS
[20] = system: RPMI-8226 leukemia

Row | Structure (SMILES) | TGI [1] [µM] | TGI [2] [µM] | TGI [3] [µM] | TGI [4] [µM] | TGI [5] [µM] | TGI [6] [µM] | TGI [7] [µM] | TGI [8] [µM] | TGI [9] [µM] | TGI [10] [µM] | TGI [11] [µM] | TGI [12] [µM] | TGI [13] [µM] | TGI [14] [µM] | TGI [15] [µM] | TGI [16] [µM] | TGI [17] [µM] | TGI [18] [µM] | TGI [19] [µM] | TGI [20] [µM]
1 | Fc1ccc(Oc2nc3ccc(C(F)(F)F)cc3nc2-c2ccccc2)cc1 | > 100 | > 100 | > 10 | > 100 | > 100 | > 100 | > 100 | > 100 | > 100 | > 100 | > 100 | > 100 | > 100 | > 100 | > 100 | > 100 | > 100 | – | – | –
2 | CC(C)Oc1c(O)c2c3c(oc(=O)n3C=CC2c2ccccc2)c1OC(C)C (centres undefined) | 92.1 | – | – | 74 | > 100 | 91.4 | 77.4 | 83.1 | > 100 | > 100 | > 100 | 57.1 | – | > 100 | > 100 | > 100 | 68.2 | > 100 | 45.2 | –
3 | COC(=O)C1=C(C)C(=O)[C@]23C(CCCC[C@H]12)C(=O)[C@H](C(=O)OC)C3C (some centres undefined) | > 100 | > 100 | > 100 | > 100 | > 100 | > 100 | > 100 | > 100 | > 100 | > 100 | > 100 | > 100 | – | – | > 100 | > 100 | > 100 | > 100 | > 100 | –
4 | O=c1c2ccccc2nc(-c2cc3c(cc2Cl)Sc2nccn2S3(=O)=O)n1-c1ccccc1 | > 100 | > 100 | – | 48 | 29.8 | 15.5 | > 100 | > 100 | > 100 | 33.8 | 44 | 30.8 | 36 | > 100 | > 100 | 23.8 | 49.9 | > 100 | 30.5 | 48.5
5 | O=C1N=C(SC(SC2=NC(=O)C3(NN2)c2ccccc2-c2ccccc23)=C(SC2=NC(=O)C3(NN2)c2ccccc2-c2ccccc23)SC2=NC(=O)C3(NN2)c2ccccc2-c2ccccc23)NNC12c1ccccc1-c1ccccc12 | > 10 | 9.09 | > 10 | > 10 | > 10 | – | > 10 | > 10 | > 10 | > 10 | > 10 | > 10 | > 10 | > 10 | > 10 | > 10 | > 10 | > 10 | – | > 10
6 | COC(=O)C(Cc1ccccc1)NP(=O)(O)OCC1OC(n2cc(Br)c(=O)[nH]c2=O)CC1O (centres undefined) | > 100 | > 100 | > 100 | > 100 | > 100 | > 100 | > 100 | > 100 | > 100 | > 100 | > 100 | > 100 | > 100 | > 100 | > 100 | > 100 | > 100 | > 100 | > 100 | –
7 | Cc1ccc(S(=O)(=O)N2CCC(=O)c3cc(Br)ccc32)cc1 | 32.1 | > 100 | – | 96.3 | > 100 | – | > 100 | > 100 | > 64.6 | 13.3 | > 100 | 75.4 | 53.6 | 21.7 | > 100 | > 100 | 54.4 | > 100 | > 35 | 76.4
8 | O=C(NNC(=S)Nc1ccccc1)c1cc(-c2ccccc2)nc2ccccc12 | 41.2 | 91.9 | 29.9 | – | 28.5 | – | > 100 | > 100 | – | 37.9 | 57.6 | 56.4 | 46.4 | 27 | 40.6 | 50.5 | > 100 | 63.8 | 30.8 | 44.9
9 | C=CCOc1cc(NC(=S)c2ccoc2C)ccc1OC | > 100 | > 100 | > 100 | > 100 | > 100 | > 100 | > 100 | > 100 | > 100 | > 100 | > 100 | > 100 | – | > 100 | > 100 | > 100 | – | > 100 | > 100 | > 100
10 | CCN(C(=O)N[C@@H](Cc1ccccc1)C(=O)N[C@@H](CC(C)C)C(=O)OC)c1ccccc1 | > 100 | 51.3 | > 100 | 58.8 | 39.2 | – | 27.3 | 42.2 | 30.1 | > 100 | 36.7 | 97.4 | 37.7 | – | 43.8 | > 100 | > 100 | 47.6 | 72.7 | 56.9
11 | CCOC(=O)c1cc(=O)c2ccnc3c2n1CCS3 | > 100 | > 100 | > 100 | > 100 | > 100 | > 100 | > 100 | > 100 | > 100 | > 100 | > 100 | > 100 | – | > 100 | > 100 | > 100 | > 100 | > 100 | > 100 | –
12 | NC(=O)Nc1ccc(S(=O)(=O)Nc2ccc(S(N)(=O)=O)cc2)cc1 | > 100 | > 100 | > 100 | > 100 | > 100 | – | > 100 | > 100 | > 100 | > 100 | > 100 | > 100 | > 100 | > 100 | > 100 | > 100 | > 100 | > 100 | > 100 | > 100

Source: PubChem BioAssay (NCI)
